From article PMC3574224, “Na^+ Regulation in the Malaria Parasite Plasmodiumfalciparum Involves the Cation ATPase PfATP4 and Is a Target of the Spiroindolone Antimalarials” (Cell Host & Microbe, 2013)

Experiments:
[1] = system: P. falciparum trophozoites; assay: Cytosolic [Ca^2+]i in fura-2-loaded saponin-isolated parasites; assay type: cell-based, Plasmodium falciparum; conditions: 50 nM; medium containing 1 μM Ca^2+
Protocol: [Ca^2+]i was measured with the Ca^2+-sensitive indicator fura-2 (Molecular Probes, Invitrogen) using a loading protocol identical to that described for SBFI. Calibration was performed as described previously ([Alleva and Kirk, 2001]).

[2] = molecular target: T1, membrane-associated ATPase activity, Dd2^attB CAM I398F/P990R (mutant PfATP4 transfectant) (Plasmodium falciparum, UniProt A0A143ZZK9, I398F/P990R); assay: Membrane-associated ATPase activity, Dd2^attB CAM I398F/P990R; assay type: biochemical; conditions: concentration causing Pi production rate to decrease by half the maximal amount, read-out: IC50 for disruption of ATPase activity by NITD246
T1 sequence (A0A143ZZK9 1-1264 I398F/P990R): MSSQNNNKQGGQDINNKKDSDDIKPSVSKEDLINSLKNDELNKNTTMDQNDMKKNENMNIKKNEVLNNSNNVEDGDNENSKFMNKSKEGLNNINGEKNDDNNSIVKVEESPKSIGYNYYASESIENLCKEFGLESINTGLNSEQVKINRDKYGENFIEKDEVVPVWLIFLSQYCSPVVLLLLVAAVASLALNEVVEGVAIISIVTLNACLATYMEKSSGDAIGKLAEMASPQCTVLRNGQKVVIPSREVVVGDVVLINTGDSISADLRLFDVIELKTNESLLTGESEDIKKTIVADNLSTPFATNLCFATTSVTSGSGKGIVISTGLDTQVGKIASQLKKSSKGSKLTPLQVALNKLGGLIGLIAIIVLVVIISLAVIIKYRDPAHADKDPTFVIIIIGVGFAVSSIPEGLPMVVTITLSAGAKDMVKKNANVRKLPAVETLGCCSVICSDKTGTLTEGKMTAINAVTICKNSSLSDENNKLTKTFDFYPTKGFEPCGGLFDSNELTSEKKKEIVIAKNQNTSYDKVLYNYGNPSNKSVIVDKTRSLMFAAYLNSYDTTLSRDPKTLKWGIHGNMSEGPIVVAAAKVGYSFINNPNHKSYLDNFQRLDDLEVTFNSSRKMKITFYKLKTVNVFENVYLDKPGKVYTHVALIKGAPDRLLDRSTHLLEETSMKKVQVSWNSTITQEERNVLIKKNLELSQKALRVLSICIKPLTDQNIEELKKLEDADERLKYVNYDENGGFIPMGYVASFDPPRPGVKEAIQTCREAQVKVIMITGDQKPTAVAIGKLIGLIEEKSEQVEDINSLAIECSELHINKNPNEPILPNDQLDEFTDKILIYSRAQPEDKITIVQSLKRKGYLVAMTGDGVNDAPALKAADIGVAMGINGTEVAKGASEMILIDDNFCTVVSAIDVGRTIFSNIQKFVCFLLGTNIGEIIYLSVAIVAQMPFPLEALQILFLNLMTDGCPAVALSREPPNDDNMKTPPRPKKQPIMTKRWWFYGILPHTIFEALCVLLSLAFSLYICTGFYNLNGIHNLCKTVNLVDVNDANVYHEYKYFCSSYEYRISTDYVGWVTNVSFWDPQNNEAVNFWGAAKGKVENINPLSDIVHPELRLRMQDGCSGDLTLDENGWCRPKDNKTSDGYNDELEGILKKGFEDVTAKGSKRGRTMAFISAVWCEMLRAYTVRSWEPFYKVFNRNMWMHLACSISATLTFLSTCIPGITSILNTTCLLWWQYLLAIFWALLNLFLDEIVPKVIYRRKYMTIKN
Protocol: For the preparation of uninfected erythrocyte membranes, packed uninfected erythrocytes were lysed by incubation for 5 min in ice-cold PBS containing 0.1% (w/v) saponin together with 1/500 Protease Inhibitor Cocktail Set III (Calbiochem). The erythrocyte ghosts were pelleted by centrifugation (12,000 × g, 10 min) and washed three times in ice-cold water (12,000 × g, 10 min) immediately prior to their use in the ATPase assay. To prepare membranes from parasitised erythrocytes, saponin-isolated parasites were lysed by suspension in ice-cold water (containing 1/500 Protease Inhibitor Cocktail Set III) then washed three times in ice-cold water (12,000 × g, 10 min) before their immediate use in the ATPase assay. The ATPase activity of membrane preparations from uninfected erythrocytes and saponin-isolated parasites was estimated from the rate of hydrolysis of ATP and measured using the PiColorLock Gold Phosphate (Pi) Detection System (Innova Biosciences). Briefly, membrane preparations from 1–3 × 10^8 cells were suspended in reaction buffer (100 mM of either NaCl or choline chloride, 50 mM Tris-HCl, 20 mM KCl, and 2 mM MgCl2) at 37°C. The ATPase reaction was initiated by the addition of 0.25 mM Na2ATP. Note that it was necessary to use the Na^+ salt of ATP, rather than the K^+ and Mg^2+ salts, as the latter both contain residual Pi that saturated the Pi detection system. […]

SMILES: C[C@H]1Cc2c([nH]c3cc(F)c(F)cc23)[C@@]2(N1)C(=O)Nc1ccc(Cl)cc12 [NITD246]
- Effect on [Ca^2+]i [1]: no effect
- IC50 [2]: 0.17 ± 0.12 nM
